In test [1] the target is T1, human renin (Homo sapiens, UniProt P00797).
T1 construct: purchased National Institute for Biological Standards, London
T1 sequence (P00797 67-406): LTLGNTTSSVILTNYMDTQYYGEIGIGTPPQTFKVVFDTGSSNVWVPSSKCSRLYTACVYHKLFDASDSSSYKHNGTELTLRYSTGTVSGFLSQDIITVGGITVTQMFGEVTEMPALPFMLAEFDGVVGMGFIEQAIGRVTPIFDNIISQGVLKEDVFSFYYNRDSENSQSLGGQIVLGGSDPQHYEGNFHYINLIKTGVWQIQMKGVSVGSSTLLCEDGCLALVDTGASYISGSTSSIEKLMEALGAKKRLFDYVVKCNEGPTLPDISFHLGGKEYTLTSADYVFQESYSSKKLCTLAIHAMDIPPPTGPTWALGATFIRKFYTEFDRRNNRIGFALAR
In words: in vitro human renin inhibition assay (angiotensin I determined by radioimmunoassay). The test is classed as biochemical. The following applies: pH 7.4, 37° C., two hours; for inhibition at 1 µM: 10^-6 M. The method, then:
Compounds of Formula I were evaluated as inhibitors of human renin in an in vitro assay. This human renin inhibition test has been previously described in detail [Papaioannou et al., Clinical and Experimental Hypertension, A7(9), 1243-1257 (1985)]. Human renin was obtained from the National Institute for Biologivcal Standards, London. An incubation mixture was prepared containing in a total volume of 0.25 mL 100 mM Tris-acetate buffer at pH 7.4, 25×10^-6 Goldblatt units of renin, 0.05 mL of plasma from human volunteers taking oral contraceptives,6.0 mM sodium EDTA, 2.4 mM phenylmethyl sulfonyl fluoride, 1.5 mM 8-hydroxyquinoline, 0.4 mg/mL BSA, and 0.024 mg/mL neomycin sulfate. This mixture was incubated for two hours at 37° C. in the presence or absence of renin inhibitors. The produced angiotensin I was determined by radioimmunoassay (New England Nuclear kit). Test compounds to be assayed were dissolved in DMSO and diluted with 100 mM Tris-acetate buffer at pH 7.4 containing 0.5% BSA to the appropriate Concentration. The final concentration of organic solvent in the reaction mixture was less than 1%. Control incubations at 37° C. were used to correct for effects of organic solvent on renin activity.

For test [2], the system named is hog renin. The following applies: after the injection of hog renin into nephrectomized rats; cited from earlier work.
Test [3] relates to pepsin. The note with it: cited from earlier work.
Test [4] relates to cathepsin D. The note with it: cited from earlier work.
In test [5] the test system is renin. The following applies: cited from earlier work.

Square brackets hold non-standard residues; d marks the D form. Peptide text beside a SMILES is read from it. * marks the point of attachment. Sta = CC(C)C[C@H](N)[C@@H](O)CC(=O)O; Isovaleryl = CC(C)CC(=O)*

For orientation: inhibition means the relative decrease from the control value, in per cent. With `CC(C)C[C@H](O)[C@H](O)[C@H](CC1CCCCC1)NC(=O)[C@H](C)CN(C)C(=O)CCCC1CCCCC1` (relative stereo) [Example 12, N-[3-[[1S,1R*-(cyclohexylmethyl)-2S*,3R*-dihydroxy-5-methylhexyl]amino]-2S*-methyl-3-oxopropyl]-N-methyl-cyclohexanebutanamide], testing at 1 µM in test [1] gave an inhibition of 23%.
Turning to `CC(C)CC(=O)N[C@H](C(=O)N[C@H](C(=O)N[C@@H](CC(C)C)[C@@H](O)CC(=O)N[C@@H](C)C(=O)N[C@@H](CC(C)C)[C@@H](O)CC(=O)O)C(C)C)C(C)C` [pepstatin] (Isovaleryl-VV[Sta]A[Sta]-OH), the “blood pressure reduction in vivo” value in test [2] is reported as “reduce blood pressure”. The “inhibitor of aspartyl proteases: pepsin” value in test [3] was “inhibitor”. The “inhibitor of aspartyl proteases: cathepsin D” value in test [4] is listed as “inhibitor”. Moreover, in test [5], the “inhibitor of aspartyl proteases: renin” value is given as “inhibitor”.
As a reminder, the IC50 is the midpoint of a concentration-inhibition curve. A lower IC50 goes with higher potency. As to `CC(C)C[C@H](O)[C@H](O)[C@H](CC1CCCCC1)NC(=O)[C@H](C)CNC(=O)c1cc2cccc(Cl)c2o1` [Example 23], the half-maximal inhibitory concentration (IC50) in test [1] turned out to be 1.8 µM. This counts as single-digit micromolar.
Still for that read-out and setting: in the case of `CC(C)C[C@H](O)[C@H](O)[C@H](CC1CCCCC1)NC(=O)[C@H](C)CNC(=O)c1coc2ccccc2c1=O` [Example 25, N-[3-[[1S,1R*-(cyclohexylmethyl)-2S*,3R*-dihydroxy-5-methyhexyl]amino]-2S*- methyl-3-oxopropyl]-4-oxo-4H-1-benzopyran-3-carboxamide] it was 1.1 µM; in that of `CC(C)C[C@H](O)[C@H](O)[C@H](CC1CCCCC1)NC(=O)[C@H](C)CNC(=O)c1cc(=O)c2ccccc2o1` [Example 26, N-[3-[[1S,1R*-(cyclohexylmethyl)-2S*,3R*-dihydroxy-5-methylhexyl]amino]-2S*-methyl-3-oxopropyl]-4-oxo-4H-1-benzopyran-2-carboxamide], 0.52 µM.
Same read-out and setting: then `CCn1cc(C(=O)NC[C@@H](C)C(=O)N[C@@H](CC2CCCCC2)[C@@H](O)[C@@H](O)CC(C)C)c(=O)c2ccc(C)nc21` [Example 16, N-[3-[[1S,1R*-(cyclohexylmethyl)-2S*,3R*-dihydroxy-5-methylhexylamino]amino]-2S*-methyl-3-oxopropyl-nalidixylamide], with 0.45 µM; and `CC(C)C[C@H](O)[C@H](O)[C@H](CC1CCCCC1)NC(=O)[C@H](C)CNC(=O)CCCC1CCCCC1` (relative stereo) [Example 11, N-[3-[[1S,1R*-(cyclohexylmethyl)-2S*,3R*-dihydroxy-5-methylhexyl]amino]-2S*-methyl-3-oxopropyl]cyclohexane-butanamide], with 0.18 µM.
On to `CC(C)C[C@H](O)[C@H](O)[C@H](CC1CCCCC1)NC(=O)[C@H](C)CNC(=O)Cc1c[nH]c2ccccc12` [Example 21, N-[3-[[1S,1R*-(cyclohexylmethyl)-2S*,3R*-dihydroxy-5-methylhexyl]amino]-2S*-methyl-3-oxopropyl]-1H-indole3-acetamide], for which the inhibition at 1 µM in test [1] worked out at 30%.
Compound `CC(C)C[C@H](O)[C@H](O)[C@H](CC1CCCCC1)NC(=O)[C@H](C)CNC(=O)CCCc1ccccc1` (relative stereo) [Example 6, N-[3-[[1S,1R*-(cyclohexylmethyl)-2S*,3R*-dihydroxy-5-methylhexyl]amino]-2S*-methyl-3-oxopropyl]benzenebutanamide] gave an IC50 in test [1] of 0.125 µM.
For the compound `CC(C)C[C@H](O)[C@H](O)[C@H](CC1CCCCC1)NC(=O)[C@H](C)CNC(=O)c1c[nH]c2ccccc12` [Example 20, N-[3-[[1S,1R*-(cyclohexylmethyl)-2S*,3R*-dihydroxy-5-methylhexyl]amino]-2S*-methyl-3-oxopropyl]-1H-indole3-carboxamide], the inhibition at 10 µM in test [1] (10^-5 M) is 27%.
With `COc1cccc2cc(C(=O)NC[C@@H](C)C(=O)N[C@@H](CC3CCCCC3)[C@@H](O)[C@@H](O)CC(C)C)oc12` [Example 24, N-[3-[[1S,1R*-(cyclohexylmethyl)-2S*,3R*-dihydroxy-5-methylhexyl]amino]-2S*-methyl-3-oxopropyl]-7-methoxy-benzofuran-2-carboxamide], the IC50 in test [1] is 3 µM.
Compound `CC(C)C[C@H](O)[C@H](O)[C@H](CC1CCCCC1)NC(=O)[C@H](C)CNC(=O)CCc1c[nH]c2ccccc12` [Example 22, N-[3-[[1S,1R*-(cyclohexylmethyl)-2S*,3R*-dihydroxy-5-methylhexyl]amino]-2S*-methyl-3-oxopropyl]-1H-indole3-propanamide] gave an IC50 in test [1] of 0.03 µM. This IC50 lies about 100-fold lower than the previous one.
For `COc1ccc(CCC(=O)NC[C@@H](C)C(=O)N[C@@H](CC2CCCCC2)[C@@H](O)[C@@H](O)CC(C)C)cc1` [Example 13, N-[3-[[1S,1R*-(cyclohexylmethyl)-2S*,3R*-dihydroxy-5-methylhexyl]amino]-2S*-methyl-3-oxopropyl]-4-methoxybenzenepropanamide], the inhibition at 0.5 µM in test [1] (5 × 10^-7 M) came out at 30%.
`CC(C)C[C@H](O)[C@H](O)[C@H](CC1CCCCC1)NC(=O)[C@H](C)CN(C)C(=O)CCCc1ccccc1` (relative stereo) [Example 10, N-[3-[[1S,1R*-(cyclohexylmethyl)-2S*,3R*-dihydroxy-5-methylhexyl]amino-]-2S*-methyl-3-oxopropyl]-N-methyl-benzenebutanamide] had an IC50 in test [1] of 0.115 µM.
On the same count and under the same terms, then `CC(C)C[C@H](O)[C@H](O)[C@H](CC1CCCCC1)NC(=O)[C@H](C)CNC(=O)c1cc2ccccc2[nH]1` (relative stereo) [Example 7, N-[3-[[1S,1R*-(cyclohexylmethyl)-2S*,3R*-dihydroxy-5-methylhexyl]amino]-2S*-methyl-3-oxopropyl]-1H-indole-2-carboxamide], with 0.026 µM.

Source of the values: patent US5147888A, “N-terminal indolyy indolylalkylaminodiol β-amino acid derivatives” (G. D. Searle & Co., priority 1991, dated 1992).
